Reference: ChEMBL document CHEMBL1201862, “PubChem BioAssay data set” (2004)
Calls of active or inactive are those of the source.

Tests used:
[1] = Luminescence Cell-Based Dose Response to Identify Activators of 5'UTR Stem-Loop Driven Prion Protein mRNA Translation in H4-C Neuroglioblastoma Cells. [Related pubchem assays: 1829 (Project Summary), 1814 (Primary HTS)]; type: functional
[2] = Luminescence Cell-Based Dose Response HTS to Identify Activators of Luciferase Translation or Activity in H4 […] Cells. [Related pubchem assays: 1829 (Project Summary), 1814 (Primary HTS)]; type: functional
[3] = Luminescence Cell-Based Dose Response to Identify Activators of Luciferase Translation or Activity in H4-C Neuroglioblastoma Cells. [Related pubchem assays: 1829 (Project Summary), 1814 (Primary HTS)]; type: functional
[4] = Luminescence Cell-Based Dose Confirmation to Identify Activators of 5'UTR Stem-Loop Driven Alpha-Synuclein mRNA Translation in H4 Neuroglioblastoma Cells. [Related pubchem assays: 1829 (Project Summary), 1814 (Primary HTS)]; type: functional
[5] = target: T1, RNA-binding protein pos-1 (Caenorhabditis elegans, UniProt G5EF15); assay: inhibitors of POS-1/mex-3 RNA binding, dose response, biochemical, fluorescence polarization (AID 1964);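 also: purified POS-1 fused to maltose binding protein made in E. coli; potency of compounds blocking POS-1 binding to fluorescent RNA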
T1 sequence (G5EF15 whole entry): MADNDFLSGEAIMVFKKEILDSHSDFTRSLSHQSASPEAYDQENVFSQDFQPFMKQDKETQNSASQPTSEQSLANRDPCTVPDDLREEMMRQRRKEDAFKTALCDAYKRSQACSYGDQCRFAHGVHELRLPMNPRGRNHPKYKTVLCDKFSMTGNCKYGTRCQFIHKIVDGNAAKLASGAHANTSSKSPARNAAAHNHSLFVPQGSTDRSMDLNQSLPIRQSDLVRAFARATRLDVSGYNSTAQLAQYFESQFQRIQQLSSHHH

[6] = target: T2, Zinc finger protein mex-5 (Caenorhabditis elegans, UniProt Q9XUB2); assay: MEX-5/TCR-2 RNA interaction inhibitors, dose response, biochemical, C. elegans, fluorescence polarization (AID 1960)
T2 sequence (Q9XUB2 whole entry): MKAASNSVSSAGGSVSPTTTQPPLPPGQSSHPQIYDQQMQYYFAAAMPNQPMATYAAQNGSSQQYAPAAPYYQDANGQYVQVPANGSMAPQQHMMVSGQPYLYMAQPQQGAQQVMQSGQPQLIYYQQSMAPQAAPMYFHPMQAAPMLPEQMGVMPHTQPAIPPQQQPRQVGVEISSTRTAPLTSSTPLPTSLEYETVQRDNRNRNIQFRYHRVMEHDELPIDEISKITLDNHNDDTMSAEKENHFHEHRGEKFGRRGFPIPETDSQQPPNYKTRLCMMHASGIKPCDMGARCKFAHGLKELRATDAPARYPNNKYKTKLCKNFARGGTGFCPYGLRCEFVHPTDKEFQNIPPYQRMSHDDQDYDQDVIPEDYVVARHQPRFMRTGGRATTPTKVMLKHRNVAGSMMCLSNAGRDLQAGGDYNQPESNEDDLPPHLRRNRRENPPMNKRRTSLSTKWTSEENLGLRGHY

Transthyretin = Transthyretin (Homo sapiens, UniProt P02766); assay: Luminescence-based cell-based high throughput dose response assay to identify activators of Transthyretin (TTR) transcription.; type: functional
Estrogen receptor beta [7] = target: T3, Estrogen receptor beta (Homo sapiens, UniProt Q92731);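 also: recombinant ER-beta bound to coactivator SRC1 peptide in presence of estradiol agonist; inhibitors block coactivator peptide binding and lower the FRET signal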
T3 sequence (Q92731 whole entry): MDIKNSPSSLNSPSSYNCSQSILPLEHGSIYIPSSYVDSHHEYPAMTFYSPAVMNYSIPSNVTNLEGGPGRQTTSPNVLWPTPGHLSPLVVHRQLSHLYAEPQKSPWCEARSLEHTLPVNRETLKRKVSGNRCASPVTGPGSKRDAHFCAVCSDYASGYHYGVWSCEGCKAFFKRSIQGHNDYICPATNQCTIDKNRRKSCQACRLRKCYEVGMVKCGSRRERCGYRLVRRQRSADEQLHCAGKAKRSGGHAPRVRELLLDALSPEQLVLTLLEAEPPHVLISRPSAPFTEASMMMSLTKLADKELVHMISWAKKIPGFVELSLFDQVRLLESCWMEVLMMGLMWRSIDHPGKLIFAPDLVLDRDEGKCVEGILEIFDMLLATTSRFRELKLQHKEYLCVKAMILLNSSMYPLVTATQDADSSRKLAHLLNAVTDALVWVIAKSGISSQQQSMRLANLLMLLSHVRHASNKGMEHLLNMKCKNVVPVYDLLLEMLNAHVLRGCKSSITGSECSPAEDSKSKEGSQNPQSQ

Estrogen receptor beta [8] = target: T3, Estrogen receptor beta; assay: ERβ–SRC-3 coactivator interaction inhibitors, confirmation, orthogonal assay, biochemical, ELISA, streptavidin-HRP readout (AID 1060)
Protein skinhead-1 = target: T4, Protein skinhead-1 (Caenorhabditis elegans, UniProt P34707); type: functional
T4 sequence (P34707 whole entry): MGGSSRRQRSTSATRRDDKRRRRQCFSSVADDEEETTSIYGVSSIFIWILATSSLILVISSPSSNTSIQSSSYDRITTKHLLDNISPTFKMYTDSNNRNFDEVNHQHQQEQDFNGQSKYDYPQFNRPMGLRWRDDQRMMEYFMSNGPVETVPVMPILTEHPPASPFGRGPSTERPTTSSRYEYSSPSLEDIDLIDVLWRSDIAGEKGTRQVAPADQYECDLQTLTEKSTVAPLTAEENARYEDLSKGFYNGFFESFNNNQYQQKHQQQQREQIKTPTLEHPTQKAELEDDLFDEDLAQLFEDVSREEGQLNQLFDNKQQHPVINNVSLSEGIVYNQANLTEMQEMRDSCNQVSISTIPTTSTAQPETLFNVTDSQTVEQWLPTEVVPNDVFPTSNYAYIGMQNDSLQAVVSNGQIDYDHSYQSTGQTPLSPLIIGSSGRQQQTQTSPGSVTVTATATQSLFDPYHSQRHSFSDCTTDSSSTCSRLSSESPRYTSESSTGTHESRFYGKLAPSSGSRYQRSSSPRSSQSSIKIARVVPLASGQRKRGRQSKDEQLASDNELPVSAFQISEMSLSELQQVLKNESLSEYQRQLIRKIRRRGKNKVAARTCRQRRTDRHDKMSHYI

[9] = inhibitors of intracellular T. cruzi replication, confirmation, NIH3T3 host cells, beta-gal luminescence (AID 2044); type: functional, cell-based;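 also: intracellular parasites grown in NIH/3T3 mouse fibroblasts as host cells; luminescent beta-galactosidase reporter signal from transgenic T. cruzi replicating inside host cells; inhibitors lower the luminescence signal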
[10] = cytotoxicity toward NIH3T3 fibroblasts, dose response, counter-screen, cell-based, ATP luminescence, mouse fibroblasts (AID 2010); type: functional;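 also: cells exposed to compound for about 90 hours before reading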
Ephrin type-A receptor 4 = Ephrin type-A receptor 4 (Mus musculus, UniProt Q03137); assay: inhibitors of EphA4 binding to KYL peptide, primary screen, biochemical, colorimetric, mouse EphA4 (AID 689); type: functional
Chain of Ephrin type-A receptor 4 (Q03137 whole entry): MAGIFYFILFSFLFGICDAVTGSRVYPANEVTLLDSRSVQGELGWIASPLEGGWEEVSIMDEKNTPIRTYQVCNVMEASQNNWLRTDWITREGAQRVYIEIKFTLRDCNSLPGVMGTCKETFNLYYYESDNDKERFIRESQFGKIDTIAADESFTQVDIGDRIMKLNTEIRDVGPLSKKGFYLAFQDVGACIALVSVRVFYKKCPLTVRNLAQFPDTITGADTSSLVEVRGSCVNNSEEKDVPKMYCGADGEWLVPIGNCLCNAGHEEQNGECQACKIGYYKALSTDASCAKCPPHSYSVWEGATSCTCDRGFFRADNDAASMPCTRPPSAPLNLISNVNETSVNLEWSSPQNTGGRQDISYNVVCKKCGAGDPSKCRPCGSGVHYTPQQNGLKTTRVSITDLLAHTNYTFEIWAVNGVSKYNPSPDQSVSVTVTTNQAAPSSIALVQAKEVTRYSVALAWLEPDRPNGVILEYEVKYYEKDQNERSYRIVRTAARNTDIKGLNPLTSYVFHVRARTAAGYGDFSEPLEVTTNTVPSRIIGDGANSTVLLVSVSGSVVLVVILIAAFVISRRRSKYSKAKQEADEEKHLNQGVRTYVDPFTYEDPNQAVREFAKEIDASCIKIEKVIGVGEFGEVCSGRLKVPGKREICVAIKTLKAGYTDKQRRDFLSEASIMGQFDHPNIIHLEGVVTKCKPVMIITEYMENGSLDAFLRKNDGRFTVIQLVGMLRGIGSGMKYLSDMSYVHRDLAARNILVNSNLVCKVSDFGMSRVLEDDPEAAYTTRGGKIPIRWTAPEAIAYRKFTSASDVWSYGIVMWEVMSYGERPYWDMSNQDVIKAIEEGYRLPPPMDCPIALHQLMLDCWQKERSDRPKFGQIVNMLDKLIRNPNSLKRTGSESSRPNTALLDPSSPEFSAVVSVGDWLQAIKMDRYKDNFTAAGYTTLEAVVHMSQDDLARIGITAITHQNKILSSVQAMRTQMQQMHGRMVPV

[11] = target: E3 ubiquitin-protein ligase Mdm2 (Homo sapiens, UniProt Q00987); assay: enhancers of MDM2-luciferase reporter signal, concentration-effect titration, project on inhibitors of MDM2 ubiquitin ligase, cellular assay, luminescent readout, 384-well plate format (AID 1394); type: functional;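 also: MDM2 E3 inhibitors raise luminescence so EC50 is for signal enhancement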
Chain of E3 ubiquitin-protein ligase Mdm2 (Q00987 whole entry): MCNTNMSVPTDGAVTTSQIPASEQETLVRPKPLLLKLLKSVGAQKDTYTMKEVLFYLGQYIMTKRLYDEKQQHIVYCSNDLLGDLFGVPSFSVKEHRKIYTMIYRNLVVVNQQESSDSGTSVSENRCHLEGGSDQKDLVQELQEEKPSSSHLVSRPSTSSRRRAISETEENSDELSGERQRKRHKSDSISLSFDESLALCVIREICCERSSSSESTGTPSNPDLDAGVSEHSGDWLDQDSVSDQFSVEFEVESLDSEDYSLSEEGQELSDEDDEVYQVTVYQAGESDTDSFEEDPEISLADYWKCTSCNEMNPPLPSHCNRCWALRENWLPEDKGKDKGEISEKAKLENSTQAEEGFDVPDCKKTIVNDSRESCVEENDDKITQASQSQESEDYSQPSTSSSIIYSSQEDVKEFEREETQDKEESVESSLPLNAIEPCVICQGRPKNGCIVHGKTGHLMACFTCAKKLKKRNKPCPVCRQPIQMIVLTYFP

[12] = target: T5, Ubiquitin-conjugating enzyme E2 N (Homo sapiens, UniProt P61088); type: functional;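 also: Dose-response confirmation in a TR-FRET assay detecting UBC13-driven polyubiquitin chain formation, inhibition measured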
T5 sequence (P61088 whole entry): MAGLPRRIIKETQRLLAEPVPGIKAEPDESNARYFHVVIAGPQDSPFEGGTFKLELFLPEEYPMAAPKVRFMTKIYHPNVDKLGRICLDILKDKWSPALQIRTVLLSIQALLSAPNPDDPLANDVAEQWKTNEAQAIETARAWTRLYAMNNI

[13] = target: T6, Short transient receptor potential channel 4 (Mus musculus, UniProt Q9QUQ5); assay: mouse TRPC4 channel activators, dose response, cell-based, HEK293 TRPC4/mu-opioid, Fluo-4 calcium (AID 434937); type: functional
T6 sequence (Q9QUQ5 whole entry): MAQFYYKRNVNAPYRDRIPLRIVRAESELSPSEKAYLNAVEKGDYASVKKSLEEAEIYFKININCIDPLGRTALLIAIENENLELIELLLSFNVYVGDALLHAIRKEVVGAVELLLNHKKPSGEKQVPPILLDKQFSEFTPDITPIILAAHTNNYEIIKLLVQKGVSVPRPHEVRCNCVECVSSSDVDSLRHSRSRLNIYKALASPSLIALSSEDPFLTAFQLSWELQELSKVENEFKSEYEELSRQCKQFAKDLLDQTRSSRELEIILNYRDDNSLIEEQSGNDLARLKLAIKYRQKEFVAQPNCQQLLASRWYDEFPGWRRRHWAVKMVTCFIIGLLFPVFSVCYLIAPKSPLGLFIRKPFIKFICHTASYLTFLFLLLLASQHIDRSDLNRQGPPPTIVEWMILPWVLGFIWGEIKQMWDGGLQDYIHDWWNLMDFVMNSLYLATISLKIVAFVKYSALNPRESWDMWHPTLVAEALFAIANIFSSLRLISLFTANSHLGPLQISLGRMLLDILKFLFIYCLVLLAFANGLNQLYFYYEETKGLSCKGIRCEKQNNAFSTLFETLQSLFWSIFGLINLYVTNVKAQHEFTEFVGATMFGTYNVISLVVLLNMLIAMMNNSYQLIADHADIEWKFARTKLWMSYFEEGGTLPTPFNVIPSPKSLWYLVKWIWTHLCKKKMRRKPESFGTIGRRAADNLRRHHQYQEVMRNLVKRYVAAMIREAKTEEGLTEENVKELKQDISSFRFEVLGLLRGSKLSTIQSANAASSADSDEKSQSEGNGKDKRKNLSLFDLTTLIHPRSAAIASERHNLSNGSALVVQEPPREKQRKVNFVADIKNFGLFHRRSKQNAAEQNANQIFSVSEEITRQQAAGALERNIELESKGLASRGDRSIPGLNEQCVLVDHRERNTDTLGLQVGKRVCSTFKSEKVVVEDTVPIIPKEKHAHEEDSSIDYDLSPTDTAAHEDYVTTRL

[14] = target: T7, Histone-lysine N-methyltransferase NSD2 (Homo sapiens, UniProt O96028); type: biochemical
T7 sequence (O96028 whole entry): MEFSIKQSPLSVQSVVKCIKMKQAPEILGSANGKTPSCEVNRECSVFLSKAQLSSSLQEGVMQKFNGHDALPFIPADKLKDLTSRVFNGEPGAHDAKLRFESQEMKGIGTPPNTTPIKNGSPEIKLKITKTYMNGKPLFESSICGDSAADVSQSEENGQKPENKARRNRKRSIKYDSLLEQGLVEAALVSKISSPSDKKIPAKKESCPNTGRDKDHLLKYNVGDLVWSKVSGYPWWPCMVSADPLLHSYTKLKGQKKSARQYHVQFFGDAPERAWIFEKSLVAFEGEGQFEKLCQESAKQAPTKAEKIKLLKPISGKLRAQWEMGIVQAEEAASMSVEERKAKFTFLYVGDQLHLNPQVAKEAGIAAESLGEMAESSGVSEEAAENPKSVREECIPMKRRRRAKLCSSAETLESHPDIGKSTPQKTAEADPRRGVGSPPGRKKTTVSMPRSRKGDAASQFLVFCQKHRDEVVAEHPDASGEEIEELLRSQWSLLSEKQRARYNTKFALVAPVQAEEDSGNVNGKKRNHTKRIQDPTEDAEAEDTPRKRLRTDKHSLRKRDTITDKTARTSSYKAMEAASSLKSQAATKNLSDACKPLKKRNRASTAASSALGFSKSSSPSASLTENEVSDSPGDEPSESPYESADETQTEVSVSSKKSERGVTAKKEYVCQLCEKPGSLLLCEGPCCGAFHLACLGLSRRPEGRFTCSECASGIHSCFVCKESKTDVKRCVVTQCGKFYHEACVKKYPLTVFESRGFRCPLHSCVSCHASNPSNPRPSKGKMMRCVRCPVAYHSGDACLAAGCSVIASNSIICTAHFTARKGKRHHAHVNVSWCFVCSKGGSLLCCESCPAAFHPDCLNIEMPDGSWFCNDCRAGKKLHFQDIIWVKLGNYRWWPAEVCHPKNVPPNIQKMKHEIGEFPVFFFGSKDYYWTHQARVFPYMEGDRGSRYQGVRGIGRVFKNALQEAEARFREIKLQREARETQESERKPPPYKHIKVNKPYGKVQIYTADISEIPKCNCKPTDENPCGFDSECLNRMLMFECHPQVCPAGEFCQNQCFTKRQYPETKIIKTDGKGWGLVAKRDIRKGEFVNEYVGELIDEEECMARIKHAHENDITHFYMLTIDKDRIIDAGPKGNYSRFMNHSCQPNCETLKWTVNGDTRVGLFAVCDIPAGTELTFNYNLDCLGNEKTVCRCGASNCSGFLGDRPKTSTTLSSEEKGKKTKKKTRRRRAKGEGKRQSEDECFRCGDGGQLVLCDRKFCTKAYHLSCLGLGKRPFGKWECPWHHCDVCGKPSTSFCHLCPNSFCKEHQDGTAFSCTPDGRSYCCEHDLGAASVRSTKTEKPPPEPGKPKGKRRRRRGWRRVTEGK

[15] = Luminescence Cell-Based Dose Confirmation HTS to Identify Activators of 5'UTR Stem-Loop Driven Alpha-Synuclein mRNA Translation in H4 Neuroglioblastoma Cells. [Related pubchem assays: 1829 (Project Summary), 1814 (Primary HTS)]; type: functional
H4 = assay: Luminescence Cell-Based Dose Response HTS to Identify Activators of 5'UTR Stem-Loop Driven Prion Protein mRNA Translation in H4 Neuroglioblastoma Cells. [Related pubchem assays: 1829 (Project Summary), 1814 (Primary HTS)]; type: functional; settings: Homo sapiens

Structure (SMILES): Cc1cc(=O)oc2cc(NC(=O)c3ccccc3Cl)ccc12
- EC50 [1]: 0.345 µM (active)
- EC50 [2]: < 0.1 µM (active)
- EC50 [3]: 0.364 µM (active)
- EC50 [4]: 0.208 µM (active)

Structure (SMILES): CCCCN1C(=O)NC(=O)/C(=C(O)\C=C\c2ccc3c(c2)OCO3)C1=O
- EC50 [5]: 11.5 µM (active)
- EC50 [6]: 9.12 µM (inconclusive)
- EC50 (Transthyretin): > 167 µM (inactive)

Structure (SMILES): COc1ccc(C2CC(=O)Nc3ccccc3S2(=O)=O)cc1OC (stereo unspecified)
- IC50 (Estrogen receptor beta [7]): 16.1 µM (active)
- IC50 (Estrogen receptor beta [8]): < 0.023 µM (not active)

Structure (SMILES): Nc1c(C(=O)Nc2ccc(F)cc2)sc2nc(-c3ccco3)ccc12
- IC50 (Estrogen receptor beta [7]): > 50 µM (not active)
- IC50 (Estrogen receptor beta [8]): > 50 µM (not active)
- IC50 (Protein skinhead-1): > 100 µM (inactive)

Structure (SMILES): Cc1nn(C(C)C)c(C)c1CN1CCCC(CCC(=O)NCc2ccccc2F)C1 (stereo unspecified)
- EC50 [9]: < 0.1 µM (active)
- EC50 [10]: > 60 µM (not active)
- EC50 (cells): < 0.004 µM (active)

Structure (SMILES): O=[N+]([O-])c1ccc(N2N=C(c3ccco3)CC2c2ccccc2)cc1 (stereo unspecified)
- IC50 (Ephrin type-A receptor 4): > 100 µM (not active)

Structure (SMILES): CC(C)n1cnc2c(N(C)c3ccccc3)nc(N(CCN(C)C)Cc3ccccc3)nc21
- EC50 [11]: 19.3 µM (not active)
- IC50 [12]: > 20 µM (inactive)
- EC50 [13]: 10.6 µM (active)

Structure (SMILES): O=C(CCC1CCCN(Cc2cccc3c2OCO3)C1)NCc1ccc(F)c(F)c1 (stereo unspecified)
- EC50 [9]: < 0.1 µM (active)
- EC50 [10]: > 60 µM (not active)
- EC50 (cells): 0.216 µM (active)

Structure (SMILES): CCCC(=O)NC1=C(N2CC2)C(=O)C(NC(=O)CCC)=C(N2CC2)C1=O
- AC50 [14]: 6.65 µM (active)
- EC50 (Transthyretin): > 167 µM (inactive)

Structure (SMILES): Cc1c(NC(=S)N/N=C/c2cccc(O)c2)c(=O)n(-c2ccccc2)n1C
- IC50 (Ephrin type-A receptor 4): 39.5 µM (active)

Structure (SMILES): COc1ccc(/C=N/NC(=O)c2ccc[nH]2)cc1
- EC50 [1]: 0.46 µM (active)
- EC50 [15]: 0.155 µM (active)
- EC50 [2]: 0.114 µM (active)
- EC50 (H4): < 0.1 µM (active)
- EC50 [3]: 0.324 µM (active)
- EC50 [4]: 0.343 µM (active)
